The text below walks through data of patent US11147820B2, “Methods for treating GI tract disorders” (Neurogastrx, Inc., priority 2012, dated 2021).

The subject of data set [1] is cardiac action potentials. The experiment in a line: Canine cardiac action potentials by electrocardiography and telemetry. The format is in vivo. As to conditions: dogs, oral gavage, post-dose period 1-6 hours, vs vehicle. The source says: Anesthesia is introduced to dogs. Balanced gaseous anesthesia is used throughout the surgical procedure. Once anesthetized, animals are shaved and surgically scrubbed, encompassing surgical sites of the right inguinal area, chest and right lateral abdomen. Throughout the surgical procedure, animals are monitored for continuous assessment of vital signs. An incision is made along the right medial thigh and the femoral artery exposed by blunt dissection. Another incision is made in the lateral lumbar area cranial to the iliac crest for a tunneling needle to be passed subcutaneously from the incision on the medial thigh to the lumbar incision. A blood pressure catheter is passed through the needle from the lumbar incision and the needle removed. The femoral artery is ligated distally and incised to insert a catheter that is advanced until the tip resided in the femoral artery/abdominal aorta. The catheter is then secured by ligation. The incision in the lumbar area is enlarged and a subcutaneous pocket created in the left dorsal lumbar area to hold the transmitter body. The transmitter (e.g., Data Sciences International, St Paul, Minn., USA) is inserted into the subcutaneous pocket and secured body. Electrocardiography (ECG) leads are positioned. The incision is closed. Postoperative recovery lasts, e.g., about 2 weeks during which supplemental analgesics/antibiotics are administered as needed. Once the postoperative recovery period is complete, the animal is examined for study acceptability by the staff veterinarian and the implanted transmitter signal verified. […] ECGs, heart rate and arterial blood pressure data are recorded 1 hour prior to and then continuously for at least 6 hours following compound and/or vehicle administration. A blood sample for determination of compound plasma concentrations is collected from all subjects at approximately 6 h post-dose. […] Standard ECG intervals (PR, RR, QRS and QT) are automatically measured by the data acquisition system and reported as, e.g., 10 min averages. […] Dose-level averages (and accompanying standard deviation (s.d.) of these baseline-adjusted 10 min averages are calculated across study animals. ANOVA (e.g., repeated measures ANOVA) are applied to these baseline-adjusted averages. Pairwise t-tests are applied within the ANOVA to identify the presence of significant differences of the dose levels relative to vehicle. These t-tests are performed at a 0.05/2=0.025 significance level, so that the overall error rate across the comparisons in a given interval are not higher than 0.05. ECG interval data (reported at 30 min intervals) are analyzed using, e.g., repeated-measures ANOVA techniques similar to the systemic blood pressure and heart rate data described above.

The subject of the next data set is gastric motility. The experiment in a line: Antral manometry in canines (gastric motility). The format is in vivo. As to conditions: for motor dysfunction: canines. As to the method:
Two healthy female hound dogs (24-28 kg) were involved in this study. Animals were fed an ad libitum chow diet (LabDiet®). After an overnight fast, the dogs were anesthetized with Pentothal (sodium thiopental, 11 mg/kg IV; Abbott Laboratories, North Chicago, Ill.) and maintained on 2-4% isoflurane (Abbott Laboratories) in oxygen (1 L/min) carrier gases delivered from a ventilator after endotracheal intubation. A cannula was placed in the jejunum 20 cm distal to the pylorus for the assessment of antral motility. Dogs were allowed to recover in their individual cages for 2 weeks. All experiments were performed after the dogs were completed recovered from the surgical procedure. The study was performed according to the National Institutes of Health Guidelines on the use of laboratory animals and approved by the Animal Care and Use Committee of the University of Texas Medical Branch at Galveston, Tex. To investigate the effect of the drugs on antral manometry, the study of each drug dose was done on three randomized sessions on separate days following the consumption of one can of solid dog food: 1) a Control session: In which animals received the vehicle only; 2) Dose I session: in which the lower dose of the drug was used; and 3) Dose II session: in which the higher dose of the drug was used (please refer to table for drug doses). Drug administration was performed according to Table 4, below. [table] Antral manometry was performed as follows. Following an overnight fast, an intraluminal water-perfused manometry catheter was inserted into the antrum through the jejunal cannula. Antral manometry recording was initiated after the consumption of one can of solid food and continued for 3 hours. The catheter contained 3 manometric sensors at a 1 cm interval. Dogs were given 10 minutes of accommodation, prior to the start of the recording. For data analysis, motility index (MI), defined as the integrated area (area under curve—AUC) between baseline and contractions per hour, was calculated. For statistical analysis, the Student's t-test was used for assessment of individual differences between groups (High dose, low dose of each drug) compared to control—Microsoft® Excel 2002). All values are expressed as mean±SEM.

The subject of a further data set is solid gastric emptying. Kind of data set: Solid gastric emptying in rats, S-carbidopa. The format is in vivo, Sprague-Dawley rats. As to conditions: 1 mg/kg, initial results. As to the method:
Male Sprague-Dawley rats, purchased from the Charles River Lab, were housed in the animal facility of Veterans Research Education Foundation, which was maintained at 22˜24° C., 55% relative humidity, with an automatic 12 h light/dark cycle. The animals received a standard laboratory rat chow and tap water ad libitum. The rats were around 400 g at 14 weeks age when used in gastric emptying study.
S-Carbidopa was purchased from Sigma (#: C1335). Stock solution of S-Carbidopa was prepared at 5 mg/ml using DMSO as solvent. 80 μl stock solution was further diluted into 1 ml distilled water to make 0.4 mg/ml. The effect of S-Carbidopa (1 mg/kg) on solid gastric emptying was studied.
Male SD rats were involved in this study. Rats were fasted in cages with metal wired mesh for 24 hours with free access to water; S-carbidopa (1 mg/kg) was administered to the rats by oral gavage. Control rats were not administered S-carbidopa. 15 minutes following administration, rats were given access to 2 g of rat chow pellets for ten minutes. All rats completely ingested the chow within the 10 minute time frame. Rats were sacrificed by sodium pentobarbital (100 mg/kg) overdose 90 min after feeding. […] Solid gastric emptying was calculated according to the following formula: Gastric emptying (%)=[1−(dried gastric content in g)/2 g]×100. All values are expressed as mean±SEM. […]

The next data set has as its system gastric emptying. The experiment in a line: Gastric emptying in rodents, metopimazine. The format is in vivo. The conditions noted are these: preliminary.

Each structure is given as a SMILES string.

In the case of `C[C@@](Cc1ccc(O)c(O)c1)(NN)C(=O)O` [S-Carbidopa, (2S)-3-(3,4-dihydroxyphenyl)-2-hydrazino-2-methylpropanoic acid], the QTc intervals entry in data set [1] is given as “no significant increases”. Moreover, the “motility index (MI)” value in the data set on gastric motility (1 mg/kg IV, 15 min prior to meal, all three channels, p=0.05) was “robustly increased MI”. The motor dysfunction result with gastric motility is “no motor dysfunction was observed”. Moreover, the “solid gastric emptying compared to control rats” value in the data set with solid gastric emptying was “improves solid gastric emptying”.

Consider `CS(=O)(=O)c1ccc2c(c1)N(CCCN1CCC(C(N)=O)CC1)c1ccccc1S2` [Metopimazine, 1-[3-[2-(methylsulfonyl)-10H-phenothiazin-10-yl]propyl]-piperidine-4-carboxamide], for which the QTc intervals result in data set [1] is “no significant increases”. In addition, in the data set on gastric motility, the motor dysfunction result was “no motor dysfunction was observed”. Further, the “increase in gastric emptying as compared to vehicle control” value in the data set on gastric emptying (3 mg/kg) is given as “about 40%”. Also, the “increase in gastric emptying as compared to vehicle control, overall effect” value with gastric emptying (pooling the 3 mg/kg and 10 mg/kg doses) was “about 20%”. For the same molecule, the peripheral restriction result in the data set “Peripheral restriction” is reported as “peripherally restricted agents”.

On to `CS(=O)(=O)c1ccc2c(c1)N(CCCN1CCC(C(=O)O)CC1)c1ccccc1S2` [Metopimazine acid], for which the QTc intervals result in data set [1] is recorded as “no significant increases”. Further, the peripheral restriction entry in “Peripheral restriction” is reported as “peripherally restricted agents”.

With `CN(CCOc1ccc(NS(C)(=O)=O)cc1)CCc1ccc(NS(C)(=O)=O)cc1` [dofetilide], the QTc intervals result in data set [1] is reported as “increased”.

In the case of `Cl.NCCc1ccc(O)c(O)c1` [dopamine hydrochloride], the “motility index (MI)” value in the data set on gastric motility (50 mg/canine IV, immediately before meal, all channels, p=0.06) is given as “decreased MI”.
